According to paper PMC9946977, “Identification of linderalactone as a natural inhibitor of SHP2 to ameliorate CCl4-induced liver fibrosis” (Frontiers in Pharmacology, 2023):

Tests used:
SHP2 PTP domain = target: T1, SHP2 PTP domain (Homo sapiens, UniProt Q06124); assay: SHP2 inhibition assay (DiFMUP) with SHP2-PTP; HTS and dose-response; format: biochemical
T1 construct: Human SHP2 PTP domain (A237–I529) expression constructs; His-tag; made in house; host or cells: E. coli BL21 (DE3)
T1 sequence (Q06124 237-529): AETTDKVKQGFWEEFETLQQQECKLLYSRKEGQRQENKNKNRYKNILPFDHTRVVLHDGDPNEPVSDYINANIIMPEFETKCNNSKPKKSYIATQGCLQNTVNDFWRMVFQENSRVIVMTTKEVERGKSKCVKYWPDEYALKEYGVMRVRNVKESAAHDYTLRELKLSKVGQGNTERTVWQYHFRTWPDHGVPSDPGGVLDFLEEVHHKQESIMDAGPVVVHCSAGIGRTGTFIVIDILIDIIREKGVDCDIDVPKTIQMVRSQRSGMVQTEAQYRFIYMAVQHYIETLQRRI
Procedure: Human SHP2 PTP domain (A237–I529) expression constructs were engineered by cloning PTPN11 (NP_002825.3) into the pET30 plasmid with a His-tag to support further protein purification. The K366A/Q510A double mutation was introduced into the wild-type template using a site-directed mutagenesis kit (E0554S; New England Biolabs). The expression constructs were sequenced and transformed into BL21 (DE3)-competent cells. E. coli cells were grown at 37°C in an LB culture medium in the presence of […] kanamycin until the OD600 reached 1.0. The medium was then cooled to 18°C and 1 mM isopropyl ß-D-1-thiogalactopyranoside (IPTG) was added to induce protein expression overnight.
A surrogate phosphatase substrate, 6,8-difluoro-4-methylumbelliferyl phosphate (DiFMUP, Thermo Fisher, #D22065), was used to monitor the catalytic activity of SHP2 in a prompt fluorescence assay format. Specifically, the DiFMUP phosphatase assay was performed at 20°C in a 384-well Griener CELLSTAR black polystyrene plate in the buffer condition of 60 mM HEPES (pH7.5), 75 mM NaCl, 75 mM KCl, 1 mM EDTA, 0.05% Tween-20, 5 mM dithiothreitol (DTT). The final reaction volume was 25 μL. NP compound libraries were obtained from TargetMol at a stock concentration of 10 mM, dissolved in DMSO. The purity of the active compound LIN used in this study is 96.27% as tested by HPLC analysis. The HPLC traces is shown in Supporting Information. We co-incubated 0.5 nM of SHP2-PTP enzyme with tested NPs for 30 min at 20°C, followed by the addition of DiFMUP into the reaction. After 30 min, 5 μL of bpV(phen) solution was added to quench the dephosphorylation reaction. The signals were read on a plate reader (SpectraMax iD5, Molecular Devices). The excitation and emission wavelengths were 340 and 450 nm, respectively. The inhibitor dose-response curves were evaluated using a normalised IC50 regression curve fitting with control-based normalisation. For the full-length SHP2 inhibition assay, 0.5 μM of a bisphosphorylated pIRS-1 peptide (ChinaPeptides Ltd. Shanghai) was added for partial SHP2 activation. […]

TGF-β/Smad pathway = assay: CCl4 mouse model: liver TGF-β/Smad signalling (real-time PCR, Western blot); format: in vivo, C57BL/6 mice
Procedure: C57BL/6 mice (20 ± 2 g) were obtained from Hangzhou Medical College Experimental Animal Center (Hangzhou, China). The animals were maintained under controlled temperature (22°C ± 1°C), humidity (50%), and light (12 h light/12 h dark). The animals were fed a standard laboratory diet and provided with free access to tap water. All animals received humane care according to institutional animal care guidelines approved by the Experimental Animal Ethical Committee of Hangzhou Medical College. Forty mice were randomly divided into six groups: (1) vehicle control (n = 7); (2) CCl4 model (n = 7); (3) CCl4 + LIN (20 mg/kg) (n = 7); (4) CCl4 + LIN (40 mg/kg) (n = 7); (5) LIN (40 mg/kg) (n = 7); and (6) CCl4 + silymarin (SIL) (200 mg/kg) (n = 5). LIN and SIL were dissolved in 0.5% CMC-Na solution. Mice were administered LIN or SIL (intragastric administration, i.g.) once per day and CCl4 (intraperitoneal injection, i.p.; mixed 1:3 in olive oil, 2 mL/kg) twice per week for 4 weeks. Mice in the vehicle control group received olive oil (i.p. twice a week, 4 weeks) and 0.5% CMC-Na (i.g. every day, 4 weeks). After treatment, the mice were sacrificed, and plasma and liver tissues were collected and further analysed.
Total RNA was extracted from liver tissues and LX-2 cells using the TRIzol reagent. cDNA was synthesised using a PrimeScript RT Master Mix kit. Real-time PCR was performed using SYBR Green premix according to the manufacturer’s instructions. Relative expression of target genes was normalised to actin, analysed by the delta-delta-CT method and given as a ratio compared with the vehicle control. Primer sequences used in this study are listed in Supplementary Material.
Liver proteins were isolated by using a lysis buffer containing 50 mM Tris-HCl (pH7.5), 150 mM NaCl, 1 mM EDTA, 20 mM NaF, 0.5% NP-40, 10% glycerol, 1 mM phenylmethylsulphonyl fluoride, 10 μg/mL aprotinin, 10 μg/mL leupeptin, and 10 μg/mL pepstatin. The supernatants were collected after centrifugation at 3,000 g for 10 min at 4°C, and the protein concentration of each sample was determined and normalised to the same protein concentration. Protein samples were separated by sodium dodecyl sulphate-polyacrylamide gel electrophoresis and transferred onto polyvinylidene fluoride membranes. The membranes were incubated with the indicated primary and secondary antibodies, and the proteins in the membranes were visualised using a chemiluminescence kit. TGF-® antibody (CST, 3711), Smad 2/3 antibody (CST, 8685), p-Smad 2/3 antibody (CST, 8828), anti-α-SMA antibody (Santa Cruz, SC-53142), vimentin antibody (ABclonal, A19607), desmin antibody (ABclonal, A3736), GAPDH antibody (Beyotime, AF0006), and SHP2 antibody (CST, 3397). […]

C/C1=C\CCC2=C[C@@H](OC2=O)c2c(C)coc2C1 [LIN, linderalactone]
IC50 (SHP2 PTP domain; 0.5 nM SHP2-PTP, DiFMUP substrate, 30 min co-incubation at 20°C, read-out: IC50 against the SHP2 PTP domain): 1870 ± 850 nM
inhibitory activity in verification experiment of initial hits (SHP2 PTP domain; dose-response confirmation of HTS hits): best inhibitory activity among the screened hits
hepatic TGF-β protein expression (TGF-β/Smad pathway; CCl4 mice, LIN 40 mg/kg, Western blot): reduced
hepatic TGF-β mRNA expression (TGF-β/Smad pathway; CCl4 mice, LIN 40 mg/kg, real-time PCR): reduced
Smad2/3 phosphorylation in the liver (TGF-β/Smad pathway; CCl4 mice, Western blot): significantly inhibited
expression level of SHP2 protein (TGF-β/Smad pathway; liver (Figure 4D) and LX-2 cells (Figure S2), Western blot): do not affect
